Test results: US20230406885A1, “CYCLIC PEPTIDES FOR TRAPPING INTERLEUKIN-1 BETA” (MERCK SHARP & DOHME LLC, priority 2022, published 2023)
*1 amine or outer side, *2 acyl side, *3 side chain or, on linkers, in order; H or OH if unused. Where a SMILES comes first, the peptide text is derived from it. [ ]: non-standard residue; d: D form. Phe(4-(4-Ac-piperazinyl)) = CC(=O)N1CCN(c2ccc(C[C@H](N)C(=O)O)cc2)CC1; Trp(4-Cl)(βS-Me) = C[C@@H](c1c[nH]c2cccc(Cl)c12)[C@H](N)C(=O)O; Trp(βS-Me,4-F) = C[C@@H](c1c[nH]c2cccc(F)c12)[C@H](N)C(=O)O; Bip(4'-COOH) = N[C@@H](Cc1ccc(-c2ccc(C(=O)O)cc2)cc1)C(=O)O; 1Nal(3S-Me) = C[C@@H](c1cccc2ccccc12)[C@H](N)C(=O)O; Phe(4-COOH) = N[C@@H](Cc1ccc(C(=O)O)cc1)C(=O)O; Trp(6-F) = N[C@@H](Cc1c[nH]c2cc(F)ccc12)C(=O)O; Trp(7-aza) = N[C@@H](Cc1c[nH]c2ncccc12)C(=O)O; X14 = C[N+](C)(C)CC[C@@H](N[*:1])C(=O)[*:2]; h3Pal(5-CN) = N#Cc1cncc(CC[C@H](N)C(=O)O)c1; Pro(4R-NH2) = N[C@H]1CN[C@H](C(=O)O)C1; 1Nal = N[C@@H](Cc1cccc2ccccc12)C(=O)O; AEF = NCCOc1ccc(C[C@H](N)C(=O)O)cc1; hTyr = N[C@@H](CCc1ccc(O)cc1)C(=O)O; hCha = N[C@@H](CCC1CCCCC1)C(=O)O; dDab = NCC[C@@H](N)C(=O)O; dNMeA = CN[C@H](C)C(=O)O; Dab = NCC[C@H](N)C(=O)O; Dap = NC[C@H](N)C(=O)O

These molecules were tested against T1, Recombinant human IL-1β (Homo sapiens, UniProt P01584) (assay: IL-6 assay in MRC5 cells: inhibition of IL-1β induced IL-6 secretion (AlphaLISA)). Conditions: inhibition of IL-1β induced IL-6 secretion in MRC5 cells; read-out: MRC5 IC50.
T1 construct: purchased BioLegend 579404
T1 sequence (P01584 117-269): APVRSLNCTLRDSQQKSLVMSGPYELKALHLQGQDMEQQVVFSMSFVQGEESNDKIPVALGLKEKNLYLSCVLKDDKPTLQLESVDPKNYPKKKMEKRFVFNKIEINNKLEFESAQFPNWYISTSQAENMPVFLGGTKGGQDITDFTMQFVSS
Assay type: cell-based
How it was run: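 IL-1β at 2×EC80 in seeding medium (EMEM, 0.025% BSA) preincubated 1 h at ambient temperature with compound, then 3000 MRC5 cells/well added and incubated overnight at 37 °C, 5% CO2. IL-6 in conditioned medium quantified by AlphaLISA; IC50 from 4-parameter logistic fit.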
An IC50 of 0.973 nM was found for CC(=O)NCCOc1ccc(C[C@@H]2NC(=O)[C@H](C)NC(=O)[C@@H](C)NC(=O)[C@H](CN)NC(=O)[C@H](Cc3c[nH]c4ccccc34)NC(=O)[C@H](Cc3ccc(-c4ccc(C(=O)O)cc4)cc3)NC(=O)CNC(=O)[C@@H](C)N(C)C(=O)[C@H](CC(=O)O)NC(=O)[C@H]([C@@H](C)c3cccc4ccccc34)NC(=O)[C@@H]3C[C@@H](N)CN3C(=O)CNC(=O)[C@H](Cc3ccc(C(=O)O)cc3)NC(=O)[C@H](Cc3c[nH]c4ccccc34)NC2=O)cc1 [Example 118] (cyclo([AEF](Ac)W[Phe(4-COOH)]G[Pro(4R-NH2)][1Nal(3S-Me)]D[dNMeA]G[Bip(4'-COOH)]W[Dap][dA]A)) in this work.
An IC50 of 0.088 nM was found for COC[C@@H]1NC(=O)[C@H](Cc2c[nH]c3ccccc23)NC(=O)[C@H](Cc2ccc(-c3ccc(C(=O)O)cc3)cc2)NC(=O)CNC(=O)[C@@H](C)N(C)C(=O)[C@H](CC(=O)O)NC(=O)[C@H]([C@@H](C)c2c[nH]c3cccc(Cl)c23)NC(=O)[C@@H]2C[C@@H](N)CN2C(=O)CNC(=O)[C@H](Cc2ccc(C(=O)O)cc2)NC(=O)[C@H](Cc2c[nH]c3ccccc23)NC(=O)[C@H](Cc2ccc(OCCNC(C)=O)cc2)NC(=O)[C@H](CCc2ccc(O)cc2)NC(=O)[C@@H](C)NC1=O [Example 153] (cyclo([AEF](Ac)W[Phe(4-COOH)]G[Pro(4R-NH2)][Trp(4-Cl)(βS-Me)]D[dNMeA]G[Bip(4'-COOH)]WS(Me)[dA][hTyr])) in this work.
An IC50 of 0.522 nM was found for CC(=O)NCCOc1ccc(C[C@@H]2NC(=O)[C@H](CCc3ccc(O)cc3)NC(=O)[C@@H](CCN)NC(=O)[C@H](CC(C)C)NC(=O)[C@H](CCCCN)NC(=O)[C@H](Cc3ccc(-c4ccc(C(=O)O)cc4)cc3)NC(=O)CNC(=O)[C@@H](C)N(C)C(=O)[C@H](CC(=O)O)NC(=O)[C@H]([C@@H](C)c3c[nH]c4cccc(F)c34)NC(=O)[C@@H]3C[C@@H](N)CN3C(=O)CNC(=O)[C@H](Cc3ccc(C(=O)O)cc3)NC(=O)[C@H](Cc3c[nH]c4ccccc34)NC2=O)cc1 [Example 160] (cyclo([AEF](Ac)W[Phe(4-COOH)]G[Pro(4R-NH2)][Trp(βS-Me,4-F)]D[dNMeA]G[Bip(4'-COOH)]KL[dDab][hTyr])) in this work.
An IC50 of 0.0257 nM was found for CC(=O)NCCOc1ccc(C[C@@H]2NC(=O)[C@H](CCc3cncc(C#N)c3)NC(=O)[C@@H](C)NC(=O)[C@H](CC(C)C)NC(=O)[C@H](CCCCN)NC(=O)[C@H](Cc3ccc(-c4ccc(C(=O)O)cc4)cc3)NC(=O)CNC(=O)[C@@H](C)N(C)C(=O)[C@H](CC(=O)O)NC(=O)[C@H]([C@@H](C)c3c[nH]c4cccc(F)c34)NC(=O)[C@@H]3C[C@@H](N)CN3C(=O)CNC(=O)[C@H](Cc3ccc(C(=O)O)cc3)NC(=O)[C@H](Cc3c[nH]c4ccccc34)NC2=O)cc1 [Example 158] (cyclo([AEF](Ac)W[Phe(4-COOH)]G[Pro(4R-NH2)][Trp(βS-Me,4-F)]D[dNMeA]G[Bip(4'-COOH)]KL[dA][h3Pal(5-CN)])) in this work.
An IC50 of 0.015 nM was found for CC(=O)N1CCN(c2ccc(C[C@@H]3NC(=O)[C@H](CCC4CCCCC4)NC(=O)[C@@H](C)NC(=O)[C@H](CC(C)C)NC(=O)[C@H](CN)NC(=O)[C@H](Cc4ccc(-c5ccc(C(=O)O)cc5)cc4)NC(=O)CNC(=O)[C@@H](C)N(C)C(=O)[C@H](CC(=O)O)NC(=O)[C@H]([C@@H](C)c4cccc5ccccc45)NC(=O)[C@@H]4C[C@@H](N)CN4C(=O)CNC(=O)[C@H](Cc4ccc(C(=O)O)cc4)NC(=O)[C@H](Cc4c[nH]c5ccccc45)NC3=O)cc2)CC1 [Example 206] (cyclo([Phe(4-(4-Ac-piperazinyl))]W[Phe(4-COOH)]G[Pro(4R-NH2)][1Nal(3S-Me)]D[dNMeA]G[Bip(4'-COOH)][Dap]L[dA][hCha])) in this work.
An IC50 of 0.018 nM was found for CC(=O)NCCOc1ccc(C[C@@H]2NC(=O)[C@H](CCC3CCCCC3)NC(=O)[C@@H](CC[N+](C)(C)C)NC(=O)[C@H](CO)NC(=O)[C@H](Cc3c[nH]c4ncccc34)NC(=O)[C@H](Cc3ccc(-c4ccc(C(=O)O)cc4)cc3)NC(=O)CNC(=O)[C@@H](C)N(C)C(=O)[C@H](CC(=O)O)NC(=O)[C@H]([C@@H](C)c3cccc4ccccc34)NC(=O)[C@@H]3C[C@@H](N)CN3C(=O)CNC(=O)[C@H](Cc3ccc(C(=O)O)cc3)NC(=O)[C@H](Cc3c[nH]c4cc(F)ccc34)NC2=O)cc1 [Example 213] (cyclo([AEF](Ac)[Trp(6-F)][Phe(4-COOH)]G[Pro(4R-NH2)][1Nal(3S-Me)]D[dNMeA]G[Bip(4'-COOH)][Trp(7-aza)]S[X14][hCha])) in this work.
An IC50 of 0.196 nM was found for CC(=O)NCCOc1ccc(C[C@@H]2NC(=O)[C@H](CCc3ccc(O)cc3)NC(=O)[C@@H](C)NC(=O)[C@H](CCN)NC(=O)[C@H](Cc3cccc4ccccc34)NC(=O)[C@H](Cc3ccc(-c4ccc(C(=O)O)cc4)cc3)NC(=O)CNC(=O)[C@@H](C)N(C)C(=O)[C@H](CC(=O)O)NC(=O)[C@H]([C@@H](C)c3c[nH]c4cccc(F)c34)NC(=O)[C@@H]3C[C@@H](N)CN3C(=O)CNC(=O)[C@H](Cc3ccc(C(=O)O)cc3)NC(=O)[C@H](Cc3c[nH]c4ccccc34)NC2=O)cc1 [Example 154] (cyclo([AEF](Ac)W[Phe(4-COOH)]G[Pro(4R-NH2)][Trp(βS-Me,4-F)]D[dNMeA]G[Bip(4'-COOH)][1Nal][Dab][dA][hTyr])) in this work.
